US20030219427A1, “TPL-2/COT kinase and methods of use” (priority 1998, published 2003)
Entries after “also recorded” stand apart in the source; their conditions may differ. Values belong to the molecule of their own block, whether it stands above or below them. Peptide text beside a SMILES is read from it. * marks the point of attachment. Cbz = O=C(OCc1ccccc1)*

Legend:
[1] = biological target: T1, TPL-2/COT kinase (FLAG-COT (30-397)) (Homo sapiens, UniProt P41279); assay: TPL-2/COT kinase assay and inhibitor screening (COT autophosphorylation and phosphorylation of GST-IκB-α); assay type: biochemical; details: for IC50: retested at 100 μM, 10 μM and 1 μM, compared to DMSO vehicle control, read-out: IC50 for TPL-2 inhibition (inhibits TPL-2 kinase activity by 50%); for inhibitory activity on COT autophosphorylation and phosphorylation of a COT target (IκB-α): initial screen at 100 μM in duplicate
T1 construct: made in house; host or cells: human 293A cells, transient transfection of a pcDNA vector, anti-FLAG immunoprecipitation
Description: FLAG-tagged COT protein was expressed in 293A cells by transfection. Typically, 24 h before transfection, human 293A cells (Quantum) were plated at 2×10^6 cells per 10 cm plate. A transfection mixture was prepared comprising 60 μl Lipofectamine (Gibco) and 800 μl Optimem (Gibco) in 15 ml tube. In. a separate tube, 8 μg of DNA encoding a FLAG-tagged COT(30-397) gene in a pcDNA vector was added to 800 μl Optimem. The contents of each tube were then mixed gently with a pipette, and allowed to incubate at room temperature for 25 min. Cells were washed once with Optimem and incubated with the transfection mixture and 6.4 ml of Optimem and allowed to incubate 5 h at 37° C. and 5% CO2. Cells were then incubated with 8 ml DMEM+10% FBS+L-glutamine on day 1, DMEM+5% FBS+L-glutamine on day 2 and harvested 48 h post-transfection.
Transfected 293A cells expressing FLAG-COT (30-397) were lysed on ice for 15 min in lysis buffer (1% Triton X-100, 50 mM Tris-HCl pH 7.5, 150 mM NaCl, 1 mM EDTA, 1 mM EGTA, 20 mM NaF, 10 mM Na4P2O7, 50 mM Na3VO4 plus Complete protease inhibitors (Boehringer)) and lysates were centrifuged (14,000 rpm for 10 min at 4° C.) and supernatants were collected. Immunoprecipitations were performed using FLAG Ab gel (Sigma) at 50 μg Ab per ml of lysate for 3 h at 4° C. with mixing. Gel beads were washed at 4° C. twice with lysis buffer and then twice with wash buffer (50 mM Tris-HCl pH 7.5, 100 mM NaCl, 0.1 mM EGTA and 1 mM DTT). Gel beads were then resuspended in wash buffer and aliquoted into tubes for various kinase reactions.
A TPL-2/COT kinase assay was used to screen various candidate TPL-2/COT kinase inhibitors. The kinase assay was performed a follows. A TPL-2 kinase (i.e., FLAG-COT (30-397)) bound on gel beads was incubated with 2 μg of a target polypeptide substrate (i.e., GST IκB-α (1-50) (Boston Biologicals) in kinase buffer (50 mM Tris-HCl pH 7.5, 10 mM MgCl2, 1 mM EGTA, 2 mM DTT and 0.01% Brij 35) in the presence of an appropriate radiolabel (30 μM ATP and 5 μCi γ-^32P-ATP (Amersham)) for 10 min at 25° C. Reactions were performed in the presence or absence of candidate compounds for inhibitor activity that were prepared as 10 mM stock solutions in 100% DMSO. The test compounds were added to the kinase reaction mixture immediately before addition of […]. Reactions were stopped by the addition of 5×SDS sample buffer, heating at 100° C. for 3 min and supernatants were collected using centrifugation. The autophosphorylation of COT and phosphorylation of the target polypeptide, i.e., GST-IκB-α were analyzed by gel electrophoresis (10% SDS-PAGE) followed by transfer to nitrocellulose membranes and autoradiography. As a control to confirm equivalent levels of FLAG-COT(30-397) and GST-IκB-α proteins were used in the different kinase reactions and also equivalent gel loading, immunoblots were performed with anti-FLAG and anti-GST antibodies, respectively, on the same membranes used for autoradiography. Inhibition of COT kinase activity, either autophosphorylation activity or phosphorylation of the target polypeptide GST-IκB-α was quantitated by scanning of autoradiographs (FIG. 13). Compounds that altered the level of these activities were further analyzed as described below.
As similarly described above, a TPL-2 polypeptide expressed in insect cells was tested for kinase activity using a target polypeptide in the presence or absence of a candidate modulator compound. […]

[2] = system: TPL-2-induced myc-p105 proteolysis in 3T3 cells; assay: Pulse-chase metabolic labeling of TPL-2-induced myc-p105 proteolysis; assay type: cell-based
Description: Pulse-chase metabolic labeling is performed to determine whether TPL-2 regulates the proteolysis of myc-p105 in 3T3 fibroblasts. For pulse-chase metabolic labeling, NIH-3T3 fibroblasts are transiently transfected using LipofectAMINE (Gibco-BRL) (Huby, et al., (1997) J. Cell. Biol. 137, 1639-1649). Preparation of cytoplasmic and nuclear fractions is performed as described (Watanabe, et al., (1997)
EMBO J. 16, 3609-3620). For pulse-chase metabolic labeling, 2.7×10^5 3T3 cells per 60 mm dish (Nunc) are transfected with the indicated expression vectors. After 24 h, cells are washed and cultured in Met/Cys-free medium for 1 h. Cells are then labeled with 145 MBq of [^35S]-Met/[^35S]-Cys (Pro-Mix, Amersham-Pharmacia Biotech) per dish for 30 min and after washing, chased in complete medium for the indicated times. […] MG132 proteasome inhibitor (Biomol Research labs) is added at […] during the last 15 min of the Met/Cys starvation period and is maintain throughout the chase. Labeled bands are quantified by laser densitometry using a Molecular Dynamics Personal Densitometer. All pulse-chase experiments are performed on at least two occasions with similar results.
The effect of the peptide aldehyde MG132, a potent inhibitor of the proteasome, is determined to investigate whether myc-p105 proteolysis induced by TPL-2 is mediated by the proteasome. […]

[3] = biological target: T2, HA-p105(369-969) (Homo sapiens (Human), UniProt P19838 368-968); assay: co-expression in Sf9 cells, purification of the complex from lysates
T2 construct: also called p105?N
T2 sequence: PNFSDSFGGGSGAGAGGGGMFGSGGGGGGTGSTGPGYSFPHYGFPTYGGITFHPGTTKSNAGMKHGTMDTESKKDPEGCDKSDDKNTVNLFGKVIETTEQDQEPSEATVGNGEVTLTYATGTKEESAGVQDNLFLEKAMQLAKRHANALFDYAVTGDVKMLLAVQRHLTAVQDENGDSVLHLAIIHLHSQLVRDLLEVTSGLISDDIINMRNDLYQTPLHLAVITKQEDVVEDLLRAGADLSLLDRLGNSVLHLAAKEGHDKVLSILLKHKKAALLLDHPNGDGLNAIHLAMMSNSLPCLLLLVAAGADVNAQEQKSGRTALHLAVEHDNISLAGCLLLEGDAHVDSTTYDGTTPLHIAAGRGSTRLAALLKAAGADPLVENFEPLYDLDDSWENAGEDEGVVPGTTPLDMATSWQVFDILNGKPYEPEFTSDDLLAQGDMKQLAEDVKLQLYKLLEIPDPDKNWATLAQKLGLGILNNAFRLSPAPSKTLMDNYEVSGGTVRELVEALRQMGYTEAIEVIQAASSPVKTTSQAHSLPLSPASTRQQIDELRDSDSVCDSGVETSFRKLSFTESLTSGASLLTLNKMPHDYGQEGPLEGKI

[4] = biological target: Myc-TPL-2ΔC (Homo sapiens (Human), UniProt P41279 1-397); assay: cell-based or functional assay
[5] = biological target: Myc-TPL-2 (Homo sapiens (Human), UniProt P41279 1-467); assay: cell-based or functional assay
[6] = biological target: T3, Myc-Raf1(CAAX) MEK kinase activity (Homo sapiens, UniProt P04049); assay: In vitro MEK kinase assay, activated Raf1; assay type: biochemical
T3 construct: CAAX membrane-targeting motif (C); made in house

IC50 [1]: 50 µM
Molecule: c1ccc(Oc2ccc3nccc(Nc4ccc(Sc5ccccc5)cc4)c3c2)cc1 [N-(6-phenoxy-4-quinolyl)-N-[4-(phenylsulfanyl)phenyl]amine]

IC50 [1]: 10 µM
Molecule: CCOC(=O)c1cnc2c(c1Nc1ccc(Sc3ccccc3)cc1)C(=O)CCC2 [ethyl 5-oxo-4-[4-(phenylsulfanyl)anilino]-5,6,7,8-tetrahydro-3-quinolinecarboxylate]

binding result [3]: binds
B1: Flag-COT(30-397) (enzyme, not shown: small tags and cut ends)
chain: MENLYASEEPAVYEPSLMTMCQDSNQNDERSKSLLLSGQEVPWLSSVRYGTVEDLLAFANHISNTAKHFYGQRPQESGILLNMVITPQNGRYQIDSDVLLIPWKLTYRNIGSDFIPRGAFGKVYLAQDIKTKKRMACKLIPVDQFKPSDVEIQACFRHENIAELYGAVLWGETVHLFMEAGEGGSVLEKLESCGPMREFEIIWVTKHVLKGLDFLHSKKVIHHDIKPSNIVFMSTKAVLVDFGLSVQMTEDVYFPKDLRGTEIYMSPEVILCRGHSTKADIYSLGATLIHMQTGTPPWVKRYPRSAYPSYLYIIHKQAPPLEDIADDCSPGMRELIEASLERNPNHRPRAADLLKHEALNPPREDQPR

IC50 of inhibition of TPL-2 MEK kinase activity in vitro [5]: 0.55 µM
B3: recombinant p105808-892 protein (p105 DD) (other)
chain: DMKQLAEDVKLQLYKLLEIPDPDKNWATLAQKLGLGILNNAFRLSPAPSKTLMDNYEVSGGTVRELVEALRQMGYTEAIEVIQAA
effect on Myc-Raf1(CAAX) MEK kinase activity [6]: no effect

Further lines, the molecule ahead of its results:

Molecule: C[S+]([O-])c1ccc(-c2nc(-c3ccncc3)c(-c3ccc(F)cc3)[nH]2)cc1 (stereo not drawn) [SB 203580]
inhibitory activity on COT autophosphorylation and phosphorylation of a COT target (IκB-α) [1]: little or no inhibitory activity

Molecule: CC(C)C[C@@H](C=O)NC(=O)[C@H](CC(C)C)NC(=O)[C@H](CC(C)C)NC(=O)OCc1ccccc1 [MG132] (Cbz-Leu-Leu-Leu-aldehyde)
effect on TPL-2-induced increased turnover (proteolysis) of myc-p105 ([2]; 3T3 cells co-transfected with myc-p105 and TPL-2, drug maintained throughout chase): blocks increased turnover of myc-p105 | effect on production of myc-p50 ([2]; TPL-2 co-expressing 3T3 cells, during the chase): completely prevents production of myc-p50; also recorded: completely blocked the production of myc-p50

Molecule: CN[C@@H]1C[C@H]2O[C@@](C)([C@@H]1OC)n1c3ccccc3c3c4c(c5c6ccccc6n2c5c31)C(=O)NC4 [staurosporine]
inhibitory activity on COT autophosphorylation and phosphorylation of a COT target (IκB-α) [1]: little or no inhibitory activity

Molecule: COc1cccc(-c2cc(=O)c3ccccc3o2)c1N [PD98059]
inhibitory activity on COT autophosphorylation and phosphorylation of a COT target (IκB-α) [1]: little or no inhibitory activity

B2: HA-p105 (other, not shown: small tags and cut ends)
chain: MAEDDPYLGRPEQMFHLDPSLTHTIFNPEVFQPQMALPTADGPYLQILEQPKQRGFRFRYVCEGPSHGGLPGASSEKNKKSYPQVKICNYVGPAKVIVQLVTNGKNIHLHAHSLVGKHCEDGICTVTAGPKDMVVGFANLGILHVTKKKVFETLEARMTEACIRGYNPGLLVHPDLAYLQAEGGGDRQLGDREKELIRQAALQQTKEMDLSVVRLMFTAFLPDSTGSFTRRLEPVVSDAIYDSKAPNASNLKIVRMDRTAGCVTGGEEIYLLCDKVQKDDIQIRFYEEEENGGVWEGFGDFSPTDVHRQFAIVFKTPKYKDINITKPASVFVQLRRKSDLETSEPKPFLYYPEIKDKEEVQRKRQKLMPNFSDSFGGGSGAGAGGGGMFGSGGGGGGTGSTGPGYSFPHYGFPTYGGITFHPGTTKSNAGMKHGTMDTESKKDPEGCDKSDDKNTVNLFGKVIETTEQDQEPSEATVGNGEVTLTYATGTKEESAGVQDNLFLEKAMQLAKRHANALFDYAVTGDVKMLLAVQRHLTAVQDENGDSVLHLAIIHLHSQLVRDLLEVTSGLISDDIINMRNDLYQTPLHLAVITKQEDVVEDLLRAGADLSLLDRLGNSVLHLAAKEGHDKVLSILLKHKKAALLLDHPNGDGLNAIHLAMMSNSLPCLLLLVAAGADVNAQEQKSGRTALHLAVEHDNISLAGCLLLEGDAHVDSTTYDGTTPLHIAAGRGSTRLAALLKAAGADPLVENFEPLYDLDDSWENAGEDEGVVPGTTPLDMATSWQVFDILNGKPYEPEFTSDDLLAQGDMKQLAEDVKLQLYKLLEIPDPDKNWATLAQKLGLGILNNAFRLSPAPSKTLMDNYEVSGGTVRELVEALRQMGYTEAIEVIQAASSPVKTTSQAHSLPLSPASTRQQIDELRDSDSVCDSGVETSFRKLSFTESLTSGASLLTLNKMPHDYGQEGPLEGKI
MEK kinase activity of TPL-2ΔC relative to wild type TPL-2 in cells expressing p105 [4]: > 40 fold

B4: Flag-COT(30-467) (enzyme, not shown: small tags and cut ends)
chain: MENLYASEEPAVYEPSLMTMCQDSNQNDERSKSLLLSGQEVPWLSSVRYGTVEDLLAFANHISNTAKHFYGQRPQESGILLNMVITPQNGRYQIDSDVLLIPWKLTYRNIGSDFIPRGAFGKVYLAQDIKTKKRMACKLIPVDQFKPSDVEIQACFRHENIAELYGAVLWGETVHLFMEAGEGGSVLEKLESCGPMREFEIIWVTKHVLKGLDFLHSKKVIHHDIKPSNIVFMSTKAVLVDFGLSVQMTEDVYFPKDLRGTEIYMSPEVILCRGHSTKADIYSLGATLIHMQTGTPPWVKRYPRSAYPSYLYIIHKQAPPLEDIADDCSPGMRELIEASLERNPNHRPRAADLLKHEALNPPREDQPRCTSLDSALLERKRLLSRKELELPENIADSSCTGSTEESEMLKRQRSLYIDLGALAGYFNLVRGPPTLEYG
binding result [3]: binds
